Read-outs that look alike come from different tables or passages of the source.
Tests used:
Aβ1-42 fibrils = molecular target: T1, Aβ1-42 fibrils (Homo sapiens, UniProt P05067); test: Disruption assay of preformed Aβ fibrils (ThT fluorescence); assay type: biochemical; conditions: 20 μM Aβ fibrils, 37° C.; for decrease in ThT fluorescence of preformed Aβ fibrils vs untreated Aβ control: Aβ:TS=1:1, 48 hour co-incubation; for ThT intensity of preformed Aβ fibrils decreased by: Aβ:TS=1:2, 48 hour co-incubation
T1 construct: Aβ1-42 peptide (≧95.5%) was all purchased from American Peptide Inc; purchased American Peptide Inc. (Sunnyvale, Calif.)
T1 sequence (P05067 672-713 limits assumed): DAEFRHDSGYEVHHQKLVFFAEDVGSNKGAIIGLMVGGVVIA
Protocol: The alternative potential therapeutic strategy to treat AD (Alzheimer's Disease) is to reduce the amount of the existing amyloid plaques. A very few molecules have been reported to disaggregate Aβ amyloid. […] To determine the ability of Aβ fibril dissolution by tanshinone in vitro, we set up experiments in which tanshinone was incubated with preformed fibrils. 20 μM Aβ fibrils were first prepared by incubating Aβ monomers in solution for 48 hour, which is sufficient long enough for Aβ to grow into mature fibrils as evidenced through AFM images and ThT fluorescence (FIG. 2). Upon 48 hour incubation, Aβ fibril solution was then co-incubated with TS1 or TS2 with different molar ratios of Aβ:TS (1:1, 1:2, and 1:5) for another 48 hour at 37° C.
Aβ1-42 fibrils were prepared by incubating 20 μM Aβ1-42 monomers for 48 h, which is sufficient long enough to enable Aβ peptides to grow into mature fibrils at a saturate state. The fibril solution was then divided into aliquots for the disruption tests. […] All the disruption samples were incubated at 37° C.
(§1) Aβ1-42 fibrillization and Aβ1-42 fibril disruption in the presence and absence of tanshinones were monitored by ThT fluorescence assay. 2 mM ThT store solution was prepared by adding 0.0328 g ThT powder into 50 mL DI water. 250 μL of the 2 mM ThT solution was further diluted into 50 mL Tris-buffer (pH=7.4) to reach a final concentration of 10 μM. 60 μL of 20 μM Aβ with or without tanshinone was put into 3 mL of 10 μM ThT-Tris solution. Fluorescence spectra were obtained using a LS-55 fluorescence spectrometer (Perkin Elmer Corp., Waltham, Mass.). All measurements were carried out in aqueous solution using a 1 cm×1 cm quartz cuvette. ThT fluorescence emission intensity of each sample was recorded between 460 and 510 nm with an excitation wavelength of 450 nm. Fluorescence intensity from solution without Aβ1-42 was subtracted from solution containing Aβ1-42. Each experiment was repeated in 3 independent samples and each sample was tested quadrupled.

SH-SY5Y cells [1] = test: Live/dead cell toxicity assay, tanshinone alone; assay type: cell-based
Description: (§2) In order to determine whether tanshinone compounds are able to protect neuronal cells from toxic Aβ species, we conducted cell viability experiments to compare the toxic effects of Aβ, TS1, TS2, Aβ-TS1, and Aβ-TS2 on the SH-SY5Y cells using the SH-SY5Y live/dead assay, which is widely used in studies of Aβ toxicity. Opti-MEM reduced serum medium was used to minimize the noise of fluorescence. We then set the cell death data obtained from Aβ-cell control experiment as a basis of 100% to normalize other data for comparison. […] When treated the cells with 8 μM TS1 or TS2 alone (Aβ:TS=1:0.4), cell death was 25.3% and 20.5% (FIG. 5), respectively. Considering the physiological concentration of Aβ is as low as 10^-9 M, 8 μM tanshinone may exceed a lethal dose to induce cell death. We thus reduced the concentation of TS1 or TS2 to a clinical trial level of 4 μM for cell viability tests. […] We then performed Aβ-tanshione cell toxicity experiments using a 1:0.2 mixture of tanshinones (4 μM) and Aβ (20 μM). […] TS1 appears to be less toxic than TS2 by 13.8%.
(§3) All chemicals for cell culture were purchased from Life Technologies unless otherwise stated. Human neuroblastoma SH-SY5Y cell (ATCC, Manassas, Va., USA) was used as model neuron and cultured in 75 cm^2 T-flasks (Corning) in sterile-filtered Eagles Minimum Essential Medium and Ham's F-12 medium mixed at a 1:1 ratio containing 10% fetal bovine serum (EMEM, ATCC, Manassas, Va., USA), and 1% penicillin/streptomycin in 37° C., humidified air with 5% CO2. Cells were cultured to confluence, and harvested using 0.25 mg/ml Trypsin/EDTA solution (Lonza). Before adding Aβ and tanshinone, cells were re-suspended in Opti-MEM reduced serum medium and counted using a hemacytometer. Cells were then plated in a 24-well tissue culture plate with approximately 150,000 cells per well in 500 μl of Opti-MEM reduced serum medium, and allowed to attach for 24 hours inside the incubator.
(§4) Aβ oligomers were prepared by incubating a 1 mM Aβ-PBS solution at 37° C. for 24 h. Aβ oligomers with a molar ratio of Aβ:tanshinone of 1:0.2 were added to each well to reach a final concentration of 20 μM. The cells were then left for 24 hours before cell toxicity tests. A live/dead cytotoxicity assay, which determines live and dead cells with two probes by measuring intracellular esterase activity and plasma membrane integrity, was used to obtain cell viability/toxicity data. Cells were stained by adding 2 μM of Calcein AM (Life Technologies) to distinguish the presence of live cells with a fluorescence excitation/emission of 494/517 nm, while by adding 5 μM of Ethidium homodimer-1 (Life Technologies) to distinguish the presence of dead cells with a fluorescence excitation/emission of 528/617 nm. The cells were incubated for 15 minutes with the live/dead assay contents to activate the fluorescent dyes. A Zeiss Axiovert 40 CFL inverted microscope fitted with filters at 510 nm and 600 nm was used to obtain fluorescence images of the live and dead cells. Fluorescence readings at 494/517 nm and 528/617 nm were detected using a Synergry H1 microplate reader (BioTek, Winooski, Vt.). Cell death in each incubation condition was normalized using the equation of ΔF=(Fi/FAβ)*100%, where ΔF is the percentage of cell death in different incubation conditions compared with the death of cells co-incubate with Aβ. Fi corresponds to the dead/live fluorescence signal of cells (blank control), cells co-incubate with TS1, cells co-incubate with TS2, cells co-incubate with Aβ and TS1, cells co-incubate with Aβ and TS2, and cells co-incubate with Aβ, respectively. FAβ represents the dead/live fluorescence signal of cells co-incubate with Aβ. The fluorescence signals of blank dyes were calibrated first and then subtracted from the fluorescence signals of medium solution.

SH-SY5Y cells [2] = test: Live/dead cell assay, protection from Aβ-induced toxicity; assay type: cell-based, Human; conditions: for protect cultured-cells from Aβ-induced toxicity by: co-incubation of Aβ with a very small amount of TSs; for percentage of dead cells (normalized to Aβ alone = 100%): tanshinone 4 μM + Aβ 20 μM (1:0.2), 24 hour, SH-SY5Y
Description: as §2, §3
as §4, with “The cells were incubated for 15 minutes with the live/dead assay contents to activate the fluorescent dyes.” left out, “Cell death in each incubation condition was normalized using the equation of ΔF=(Fi/FAβ)*100%, where ΔF is the percentage of cell death in different incubation conditions compared with the death of cells co-incubate with Aβ.” left out

Aβ1-42 [3] = molecular target: T2, Aβ1-42 (Homo sapiens, UniProt P05067); test: ThT fluorescence assay of Aβ1-42 amyloid formation (inhibition assay); assay type: biochemical; conditions: 20 μM Aβ1-42, 37° C.; for final ThT fluorescence intensity reduced by: Aβ:TS=1:2, 24 hour
T2 construct: Aβ1-42 peptide (≧95.5%) was all purchased from American Peptide Inc; purchased American Peptide Inc. (Sunnyvale, Calif.)
T2 sequence (P05067 672-713 limits assumed): as above
Protocol: (§5) To examine the inhibitory effect of TS1 and TS2 on Aβ aggregation, the kinetics and morphological changes of Aβ1-42 amyloid formation in the presence of different molar ratios (Aβ:TS) of two tanshinone compounds were monitored by ThT fluorescence assay and AFM (Atomic force microscopy). 20 μM Aβ1-42 solution (with or without tanshinone) was incubated at 37° C. for 48 h. ThT fluorescence assay has been widely used to detect the formation of amyloid fibrils because the binding of thioflavin dyes to amyloid fibrils enables to reduce self-quenching by restricting the rotation of the benzothiozole and benzaminic rings, leading to a significant increase in fluorescence quantum yield. […] After 24 hour reaction, a strong ThT emission was observed and remained almost unchanged within statistic errors between 24 and 48 hour incubation.
A homogeneous solution of Aβ monomers was required for inhibition tests. The purified Aβ1-42 powder was aliquoted in DMSO for 1 min and sonicated for 30 sec. The initiation of 20 μM Aβ1-42 [containing 1% (v/v) DMSO] aggregation in solution was accomplished by adding an aliquot of the concentrated DMSO-Aβ1-42 solution to 10 mM PBS buffer, followed by immediate vortexing to mix thoroughly. Aβ1-42 solution was then centrifuged with 14,000 rpm for 30 min at 4° C. to remove any existing oligomers, which 75% of the top solution was removed for further incubation or inhibition experiments. The pure Aβ1-42 solution was incubated at 37° C. as control. For Aβ inhibition experiments, 40 mM tanshinone (in DMSO) stock solution was dissolved in freshly prepared Aβ1-42 monomer solution to a final concentration of 20 μM and 40 μM (with Aβ:tanshinone molar ratio of 1:1 and 1:2), respectively. The mixed Aβ-tanshinone samples were incubated at 37° C.
as §1

Aβ1-42 [4] = molecular target: T2, Aβ1-42; test: AFM morphology of Aβ1-42 incubated with tanshinones; conditions: Aβ:TS=1:1, within the first 4 hours
Protocol: as §5
The morphology change of Aβ fibrillization and disruption in the presence and absence of tanshinones was characterized by AFM. A 25 μL sample used in the Aβ1-42 ThT fluorescence assay was taken for AFM measurement at different time points to correlate Aβ morphology change with Aβ grow kinetics. […]

| Compound | decrease in ThT fluorescence of preformed Aβ fibrils vs untreated Aβ control (Aβ1-42 fibrils) | ThT intensity of preformed Aβ fibrils decreased by (Aβ1-42 fibrils) | signs of cell death by fluorescence microscopy (SH-SY5Y cells [1]) | cell death (normalized to Aβ-treated cells = 100%) (SH-SY5Y cells [1]; human, 24 h, 4 μM) | cell death (normalized to Aβ-treated cells = 100%) (SH-SY5Y cells [1]; human, 24 h, 8 μM) | protect cultured-cells from Aβ-induced toxicity by (SH-SY5Y cells [2]) | percentage of dead cells (normalized to Aβ alone = 100%) (SH-SY5Y cells [2]) | ThT intensity relative to Aβ samples without inhibitors decreased by (Aβ1-42 [3]; Aβ:TS=1:1, 24 hour) | ThT intensity relative to Aβ samples without inhibitors decreased by (Aβ1-42 [3]; Aβ:TS=1:1, 48 hour) | final ThT fluorescence intensity reduced by (Aβ1-42 [3]) | small spherical particles in AFM images (Aβ1-42 [4]) | cell death (normalized to Aβ-treated cells = 100%) (SH-SY5Y cells [1]; 4 μM TS alone, 24 hour, SH-SY5Y) | cell death (normalized to Aβ-treated cells = 100%) (SH-SY5Y cells [1]; 8 μM TS alone, 24 hour, SH-SY5Y) | signs of cell death by fluorescence microscopy (SH-SY5Y cells [1]; pure TS, 4 μM level, SH-SY5Y) | less toxic than TS2 by (difference in dead cells) (SH-SY5Y cells [2]; tanshinone 4 μM + Aβ 20 μM) |
| --- | --- | --- | --- | --- | --- | --- | --- | --- | --- | --- | --- | --- | --- | --- | --- |
| Cc1coc2c1C(=O)C(=O)c1c-2ccc2c1CCCC2(C)C [TS2, tanshinone IIA] | ~0.8% | ~30% | no observable signs of cell death | 5.8% | 20.5% | ~71.3% | ~71.3% | 44.8% | 34.6% | 83.4% | 1-6 nm |  |  |  |  |
| Cc1coc2c1C(=O)C(=O)c1c-2ccc2c(C)cccc12 [TS1, tanshinone I] | ~0.8% | ~30% |  |  |  | ~57.5% | ~57.5% | 78.2% | 65.8% | 88.5% | 1-3 nm | 9.3% | 25.3% | no observable signs of cell death | 13.8% |
